From patent US9315811B2, “Methods for modulating kallikrein (KLKB1) expression” (Ionis Pharmaceuticals, Inc., priority 2011, dated 2016) come the findings set out here.

The test system of data set [1] is Kallikrein mRNA. As to the kind of experiment: Liver RT-PCR analysis of kallikrein mRNA (Example 9). To be noted: for Percent inhibition of kallikrein mRNA expression compared to the untreated PBS control: all groups ISIS 461756 12.5 mg/kg twice a week, ASO 40 mg/kg or PBS s.c. twice a week 3 weeks. It is filed as in vivo, mouse. On the procedure: (§1) One group of 8 mice was treated with 40 mg/kg ISIS 482584 administered subcutaneously twice a week for 3 weeks (weekly dose of 80 mg/kg). A second group of 8 mice was treated with 40 mg/kg of the control oligonucleotide, ISIS 141923, administered subcutaneously twice a week for 3 weeks (weekly dose of 80 mg/kg). A third group of 8 mice was treated with PBS administered subcutaneously twice a week for 3 weeks. On day 14, all the groups were treated with 12.5 mg/kg ISIS 461756 administered subcutaneously twice a week for 3 weeks (weekly dose of 25 mg/kg). A control group of mice was treated with PBS administered subcutaneously twice a week for 3 weeks but was not administered ISIS 461756.
(§2) At the end of the treatment period, all the groups were injected with 30 mg/kg of Evans Blue solution into the tail vein. The mice were sacrificed 30 min after the Evans Blue solution administration and colons, feet, ears, and intestines were harvested. The liver was also harvested for RNA analysis.
RNA was isolated from the liver for RT-PCR analysis of C1-INH and kallikrein mRNAs. The primer probe set for C1-INH is RTS3218 (forward sequence […], designated herein as SEQ ID NO: 24; reverse sequence […], designated herein as SEQ ID NO: 25; probe sequence […], designated herein as SEQ ID NO: 26). The primer probe set for kallikrein is RTS3287 (forward sequence […], designated herein as SEQ ID NO: 27; reverse sequence […], designated herein as SEQ ID NO: 28; probe sequence […], designated herein as SEQ ID NO: 29). The results are presented in Table 20 as percent inhibition compared to the PBS control not treated with ISIS 461756.

The test system of a further data set is C1-INH mRNA. As to the kind of experiment: Liver RT-PCR analysis of C1-INH mRNA (Example 9). Format: in vivo, mouse. On the procedure: as §1, §2
RNA was isolated from the liver for RT-PCR analysis of C1-INH and kallikrein mRNAs. The primer probe set for C1-INH is RTS3218 (forward sequence […], designated herein as SEQ ID NO: 24; reverse sequence […], designated herein as SEQ ID NO: 25; probe sequence […], designated herein as SEQ ID NO: 26). […]

A further data set has as its system mouse kallikrein mRNA. As to the kind of experiment: Antisense inhibition of murine kallikrein mRNA in mouse primary hepatocytes (Example 1). It is filed as cell-based. On the procedure: Antisense oligonucleotides targeting a murine kallikrein nucleic acid were tested for their effects on kallikrein mRNA in vitro. Cultured mouse primary hepatocytes at a density of 10,000 cells per well were transfected using Cytofectin reagent with 12.5 nM, 25 nM, 50 nM, 100 nM, or 200 nM of antisense oligonucleotide. After a treatment period of approximately 24 hours, RNA was isolated from the cells and mouse kallikrein mRNA levels were measured by quantitative real-time PCR using the murine primer probe set RTS3313 (forward sequence […], designated herein as SEQ ID NO: 21; reverse sequence […], designated herein as SEQ ID NO: 22; probe sequence […], designated herein as SEQ ID NO: 23). Kallikrein mRNA levels were adjusted according to total RNA content, as measured by RIBOGREEN.
The chimeric antisense oligonucleotides were designed as 5-10-5 MOE gapmers. The gapmers are 20 nucleotides in length, wherein the central gap segment is comprised of ten 2′-deoxynucleosides and is flanked on both sides (in the 5′ and 3′ directions) by wings comprising five nucleosides each. Each nucleoside in the 5′ wing segment and each nucleoside in the 3′ wing segment has a 2′-MOE modification. The internucleoside linkages throughout each gapmer are phosphorothioate (P═S) linkages. All cytosine residues throughout each gapmer are 5-methylcytosines.
ISIS 482584 ([…]; incorporated herein as SEQ ID NO: 40), which was one of the antisense oligonucleotides tested in the assay, is targeted to SEQ ID NO: 11 (GENBANK Accession No. NM_008455.2) with a target start site of 1586 and a target stop site of 1605.

Data set [2] relates to Kallikrein mRNA. Nature of the data set: Kallikrein mRNA and protein expression in mice after subcutaneous ASO (Example 1). Format: in vivo, mouse. Particulars: 3 weeks. On the procedure: C57BL/6J-Tyrc-2J mice were treated with 2.5 mg/kg, 5.0 mg.kg, 10.0 mg/kg, 20.0 mg/kg, 40.0 mg/kg, or 80.0 mg/kg (corresponding to 5.0 mg/kg, 10.0 mg/kg, 20.0 mg/kg, 40 mg/kg, 80 mg/kg, or 160 mg/kg per week) of ISIS 482584 administered subcutaneously twice a week for 3 weeks. […] Kallikrein mRNA was reduced by greater than 90% inhibition at a dose of 160 mg/kg per week.

Data set [3] concerns high molecular weight kininogen (HMWK). Nature of the data set: Western blot quantification of HMWK and HMWK cleavage product by densitometer (Example 5). To be noted: vs PBS control, dose-dependent. It is filed as in vivo, mouse. On the procedure:
All the groups were then injected with 30 mg/kg of Evans Blue solution in the tail vein. The mice were sacrificed 30 min after the Evans Blue solution administration and colons, feet, and ears were harvested and examined for permeability defects. Blood samples were taken through cardiac puncture.
Treatment with kallikrein antisense oligonucleotide results in stabilization of HMWK. Thus, vascular permeability is reduced in ISIS 482584-treated groups in a dose-dependent manner. […] Thus, reduced HMWK is caused by kallikrein cleavage of HMWK into cleavage products (including bradykinin and HKa). Data are presented in Intensity Units as measured by densitometer.
For orientation: Immunoblotting shows a protein as a band on a membrane.

For a further data set, the system named is mice. As to the kind of experiment: Evans Blue vascular permeability induced by ISIS 461756 (Example 9). Particulars: mouse, in vivo. On the procedure:
Vascular permeability induced by ISIS 461756, an antisense oligonucleotide which targets murine C1 inhibitor mRNA, increases vascular permeability in mice and replicates the pathology of hereditary angioedema. The effect of ISIS 482584 on this model was evaluated.
as §1
At the end of the treatment period, all the groups were injected with 30 mg/kg of Evans Blue solution into the tail vein. […]
The harvested tissues from the feet, colon, and intestines were placed in formamide solution overnight to leach out the Evans Blue dye. […] The color intensity of the dye-infused formamide solution was then measured at OD600nm. […]

Oligonucleotides are written 5' to 3', each unit as a sugar letter and its base; * is a phosphorothioate linkage, no mark a phosphodiester; rarer units and linkages stand in square brackets, end groups in braces. Plain capitals give the bases only. e = 2'-O-(2-methoxyethyl) (MOE); [5mC] = 5-methylcytosine; d = 2'-deoxy (DNA)

Take “ISIS 141923: control oligonucleotide, a 5-10-5 MOE gapmer with no known murine target; CCTTCCCTGAAGGTTCCTCC (SEQ ID NO: 42) (sugars from the 5' end e5 d10 e5, backbone and methylation of C not given here) [reference compound]”: in the data set on Kallikrein mRNA [1], the “Percent inhibition of kallikrein mRNA expression compared to the untreated PBS control” value (shortened to “Percent inhibition”) came to 0%.

As for “ISIS 461756: 5-10-5 MOE gapmer antisense oligonucleotide which targets murine C1 inhibitor mRNA; AAAGTGGTTGATACCCTGGG (SEQ ID NO: 41) (sugars from the 5' end e5 d10 e5, backbone and methylation of C not given here) [reference compound]”, in the data set with C1-INH mRNA, the “C1-INH mRNA expression” value is given as “significantly reduced”. Moreover, the “Percent inhibition” value with Kallikrein mRNA [1] came out at 0%.

As for “ISIS 482584: 5-10-5 MOE gapmer antisense oligonucleotide targeting murine kallikrein; GGCATATTGGTTTTTGGAAT (SEQ ID NO: 40) (antisense eG*eG*e[5mC]*eA*eT*dA*dT*dT*dG*dG*dT*dT*dT*dT*dT*eG*eG*eA*eA*eT)”, the % inhibition (commonly the change of the read-out against control, counted positive when it falls) stood at 0% in the data set with mouse kallikrein mRNA (12.5 nM); 36% with mouse kallikrein mRNA (25.0 nM); 17% in the data set on mouse kallikrein mRNA (50.0 nM); 60% in the data set on mouse kallikrein mRNA (100.0 nM); 83% in the data set on mouse kallikrein mRNA (200.0 nM). Moreover, the “Kallikrein mRNA inhibition” value with Kallikrein mRNA [2] (160 mg/kg per week s.c.) is given as “greater than 90%”. For the same substance, in the data set on Kallikrein mRNA [2] (5.0-160 mg/kg per week s.c.), the “Kallikrein mRNA and protein expression” value was “reduced in a dose dependent manner”. In data set [3], the “HMWK levels” value is “higher levels of HMWK”. The “kallikrein expression” value in the data set on Kallikrein mRNA [1] is on record as “significantly reduced”. Also, the “Percent inhibition” value in the data set on Kallikrein mRNA [1] is 78%. In the data set with mice, the “vascular permeability induced by ISIS 461756” value is “prevented vascular permeability”.
